Measurements taken from patent US20050261189A1, “Methods of promoting cardiac cell proliferation” (Hydra Biosciences, Inc., priority 2004, published 2005).

What was measured:
[1] = tested on: neonatal rat cardiomyocytes; test: Neonatal rat cardiomyocyte proliferation, DNA synthesis by BrdU incorporation; assay type: cell-based; conditions: for cardiomyocyte proliferation: 48 hours, FIG. 22
Description: Neonatal rat cardiomyocytes were isolated from postnatal day 2 Wistar rat pups. Rat pups were anesthetized by hypothermia in ice water for 10 min and euthanized by decapitation. Hearts were isolated and placed in PBS-G (KCl 2 g/L; KH2PO4 2 g/L; NaCl 80 g/L; Na2HPO4.7H20 21.6 g/L; D-glucose 10 g/L) on ice. The atria were removed and ventricles were washed in PBS-G and cut into pieces smaller than 2 millimeters. PBS-G containing 119.6 units/ml collagenase type 2 and 0.2 mg/ml pancreatin was warmed to 37° C. Amounts of collagenase were adjusted for batch variations in units/mg activity. Ventricles were dissociated in collagenase/pancreatin solution for 15 minutes on a rotator at 37° C. Tissue was dispersed gently by pipetting and allowed to settle for 5 min at room temperature. Cell suspension from first dissociation was discarded and replaced with fresh collagenase/pancreatin solution, and incubated at 37° C. for 15 minutes on an orbital shaker. Tissue was again dispersed and allowed to settle. The cell supension was transferred to a new tube and incubated an additional 5 min at 37° C., and the digestion was stopped by addition of an equal volume of DMEM/20% NCS and stored on ice. Digestion of the ventricular tissue was repeated 3 additional times and supernatants were collected and stored on ice in equal volumes of DMEM/20% NCS.
Cells from all the fractions were collected at 200 RCF for 6 min at room temperature. Cell pellets were resuspended in 2 ml ADS buffer (6.8 g/L NaCl, 0.4 g/L KCl, 1.0 g/L D-glucose, 1.5 g/L NaH2PO4, 4.75 g/L HEPES, 0.1 MgSO4.7H2O). One ml of cell suspension was applied to two Percoll gradients set up in the following manner. The top Percoll gradient (density 1.059 g/ml) was generated by mixing Percoll stock with ADS buffer in a 9:11 ratio, and the bottom Percoll gradient (density 1.082 g/ml) was made by mixing Percoll stock and ADS buffer in a 13:7 ratio. Four ml Top Percoll was added to a 15 ml conical tube, and three ml Bottom Percoll was laid below it by placing a pipet tip at the bottom of the tube, then carefully withdrawing it as the solution was delivered. The gradients were centrifuged at 3000 rpm for 30 consecutive minutes at room temperature. Cardiac non-myocytes were located above the top percoll buffer while cardiac myocytes were located at the interface of the top and bottom percoll layers. Blood and undissociated tissue were found at the bottom of the tube. Cardiac myocytes were collected after the top percoll was aspirated, and resuspended in DMEM/10% FBS, then centrifuged at 200 RCF for 6 min. Pelleted myocytes were resuspended in plating medium containing DMEM with 25 mM HEPES, 5% horse serum, 4 mM glutamine, penicillin and streptomycin. Four volumes of DMEM/10% FBS were added and the cell suspension was passed through a 40 uM cell strainer. Cells were pre-plated in 10 cm tissue culture plates for 1 hour at 37° C. Unattached cells were collected from the medium and centrifuged at 200 RCF for 6 min. Pelleted myocytes were resuspended in plating medium containing 10 uM AraC at a density of 100000 cells/ml and 200 ul/well were distributed into 96 well plates which had previously been coated with 0.1% gelatin/12.5 ug/ml fibronectin at 37° C. for more than 4 hours. Plated cells were grown for at least 48 hours at 37° C. prior to use in further experiments.
Briefly, the experiments summarized in FIG. 15 and FIG. 16 were conducted as follows. Neonatal rat cardiomyocytes were prepared and cultured as outlined in example 1. […]

beta-catenin = test: Nuclear beta-catenin assay in rat neonatal cardiomyocytes; assay type: cell-based; conditions: 16 hours, FIG. 23
Description: We have used a nuclear beta-catenin assay to readily identify Wnt-related polypeptides that promote Wnt signaling via the canonical Wnt signaling pathway in cardiac cells. Specifically, and by way of example, we conducted a nuclear beta-catenin assay in rat neonatal cardiomyocytes to identify Wnt-related polypeptides that promote Wnt signaling via the canonical Wnt signaling pathway in cardiomyocytes. Such an assay conducted in neonatal or adult cardiac cells including, but not limited to, cardiomyocytes can be used to identify candidate agents that are capable of promoting Wnt signaling via the canonical Wnt signaling pathway in cardiac cells.
Briefly, neonatal cardiomyocytes were prepared and plated as outlined in detail above. Cells were washed two times with serum-free medium and were incubated in medium containing either a recombinant Wnt-related polypeptide, or some control factor. Cells were incubated for 16 hours, were fixed in 4% Formaldehye for 10 minuntes at room temperature, and were permeabilized with 0.2% Triton X-100 for 5 minutes. […] Although beta-catenin is not typically detectable by immunocytochemistry in the absence of active Wnt signaling, the nuclei were counterstained with 4′,6-diamidino-2-phenylindole (DAPI) to specifically confirm that the detected beta-catenin expression was localized to the nucleus. […]
Neonatal cardiomyocytes were cultured under one of the following conditions: medium alone (negative control), 10 mM LiCl, 2% fetal calf serum (FCS), 10% fetal calf serum (FCS), 25 ng/ml recombinant mouse Wnt5A (Catalog# 645-WN/CF), 50 ng/ml recombinant mouse Wnt5A (Catalog# 645-WN/CF), 100 ng/ml recombinant mouse Wnt5A (Catalog# 645-WN/CF), 25 ng/ml recombinant mouse Wnt3A (Catalog # 1324-WN/CF), 50 ng/ml recombinant mouse Wnt3A (Catalog # 1324-WN/CF), or 100 ng/ml recombinant mouse Wnt3A (Catalog # 1324-WN/CF). Following culture under one of the foregoing conditions, cells were analyzed by immunocytochemistry for expression of beta-catenin protein, and nuclear localization was verified by counterstaining the cells with DAPI. […]

[2] = tested on: one or more non-cardiac cells types; conditions: cited from earlier work
Sca1+ cell preparation = test: Viable cell count, Sca1+ adult cardiac cell preparation; assay type: cell-based, mouse; conditions: Sca1+ cell preparations, 3-4 days culture; recombinant Wnt3A at 50 ng/ml; FIG. 25a
Description: (§1) Whole hearts were obtained from adult mice (greater than 5 weeks of age). Cardiac tissue was minced and washed three times to remove blood. Cardiac cells were dissociated with pancreatin and collagenase for 15 minutes at 37° C. and washed. Following dissociation the unfractionated cells were either plated, or fractionated into a Sca1+ and Sca1− population prior to plating. These three cardiac cell populations (unfractionated cell preparation; Sca1+cell preparation; Sca1− cell preparation) were cultured in the presence of various Wnt-related compositions. Specifically, the cardiac cell preparations were cultured for 3-4 days in either L-cell conditioned medium alone; LWW60 conditioned medium; or culture medium containing purified Wnt3A protein. Following 3-4 days in culture, the cardiac cells were washed with PBS and trypsinized, and viable cells were counted.

β-catenin = β-catenin stabilization by immunocytochemistry in neonatal rat cardiomyocytes; assay type: cell-based; conditions: 48 hours in neonatal base medium; recombinant Wnt3A 167 ng/ml or 500 ng/ml, or serum; FIG. 19
Description: Briefly, neonatal rat cardiomyocytes were treated with either serum or with recombinant Wnt3A (e.g., 167 ng/ml or 500 ng/ml) in neonatal base medium for 48 hours. The treated cells were fixed, permeablilized with 0.5% Triton-X-100 for 15 minutes, and blocked in 5% goat serum in PBS-T for one hour. Mouse anti-β-catenin antibody (BD-Pharmingen) diluted 1:250 were incubated on cells for one hour. Cells were washed 3 times in PBS-T and incubated one hour in Alexa 594 goat anti-mouse antibody (Molecular Probes) at a dilution of 1:200.

[3] = tested on: unfractionated adult cardiac cells; test: Viable cell count, unfractionated adult cardiac cells; assay type: cell-based, mouse; conditions: unfractionated (whole heart) preparations, 3-4 days culture; recombinant Wnt3A at 50 ng/ml; FIGS. 24, 25a
Description: as §1

[4] = tested on: neonatal rat cardiomyocytes; test: Hypertrophic response: ANF and tropomyosin immunocytochemistry in neonatal rat cardiomyocytes; conditions: Wnt3A 150 ng/ml, phenylephrine as hypertrophic stimulus
Description: Briefly, neonatal rat cardiomyocytes were treated with serum or phenylephrine (two agents known to induce hypertrophy), or were treated with 150 ng/ml recombinant Wnt3A. Following treatment, the cells were analyzed by immunocytochemistry for expression of atrial naturietic factor (ANF) (rabbit anti-ANF/Peninsula laboratories/Bachem) or expression of tropomyosin (CH1 antibody available from Developmental Hybridoma).

[5] = tested on: Wnt3A induced cardiomyocyte proliferation; test: Wnt antagonists co-administered with Wnt3A-L-cell supernatant, cardiomyocyte proliferation; assay type: cell-based, rat; conditions: 100 ng/ml of the Wnt inhibitor; FIG. 18
Description: To confirm that Wnt3A was responsible for the stimulation of cardiomyocyte proliferation observed in FIG. 17, we co-administered supernatant from Wnt3A expressing mouse L-cells and the Wnt antagonist dkk (recombinant dkk obtained from R&D Systems).
Nevertheless, the inhibition of Wnt3A induced cardiomyocyte proliferation by dkk supports the conclusion that Wnt3A is the active cardiomyocyte proliferative factor in the conditioned medium.
The experiments were conducted and analyzed as detailed above in examples 2 and 3.

[6] = recombinant mouse Wnt protein 25 ng/ml-100 ng/ml

[Cl-].[Li+] [LiCl, lithium chloride, reference compound]
cardiomyocyte proliferation ([1]; LiCl 10 mM, 5 mM or 2.5 mM): promoted cardiomyocyte proliferation | beta-catenin nuclear localization (percentage of cells with nuclear beta-catenin staining) (beta-catenin; 10 mM LiCl, versus medium alone or 2% or 10% serum): promoted beta-catenin nuclear localization

Wnt3A
cardiomyocyte proliferation level compared with serum ([1]; higher doses of Wnt3A, FIG. 16): comparable to serum | cardiomyocyte proliferation ([1]; recombinant Wnt3A 150, 50 or 17 ng/ml): promoted cardiomyocyte proliferation | cardiomyocyte proliferation, dilution series ([1]; recombinant Wnt3A dilution series, FIG. 16): promoted cardiomyocyte proliferation in a dose dependent manner | cardiomyocyte proliferation, as measured by incorporation of BrdU ([1]; recombinant mouse Wnt3A 0.06, 0.4, 2.3, 14, 83 and 500 ng/ml, FIG. 15): statistically significant, dose dependent increase in cardiomyocyte proliferation | beta-catenin nuclear localization (percentage of cells with nuclear beta-catenin staining) (beta-catenin; [6]): promoted beta-catenin nuclear localization | Wnt signaling pathway shown in one or more non-cardiac cell types [2]: signal via the canonical pathway | number of viable cells (Sca1+ cell preparation): also increased the number of viable cells | stabilization of β-catenin (increased detection and nuclear localization), Wnt signaling (β-catenin): resulted in stabilization of β-catenin | number of viable cells [3]: also increased the number of viable cells

CNC[C@H](O)c1cccc(O)c1 [phenylephrine]
ANF expression increased ([4]; FIG. 20): increased | change in cardiomyocyte cell size and shape ([4]; FIG. 21): vastly different cell shape, size, and morphology

B1: FRP3: Wnt inhibitor, secreted frizzled-related protein class (protein, UniProt Q92765 33-325, looked up)
Secreted frizzled-related …: AACEPVRIPLCKSLPWNMTKMPNHLHHSTQANAILAIEQFEGLLGTHCSPDLLFFLCAMYAPICTIDFQHEPIKPCKSVCERARQGCEPILIKYRHSWPENLACEELPVYDRGVCISPEAIVTADGADFPMDSSNGNCRGASSERCKCKPIRATQKTYFRNNYNYVIRAKVKEIKTKCHDVTAVVEVKEILKSSLVNIPRDTVNLYTSSGCLCPPLNVNEEYIIMGYEDEERSRLLLVEGSIAEKWKDRLGKKVKRWDMKLRHLGLSKSDSSNSDSTQSQKSGRNSNPRQARN
abolition of Wnt3A induced cardiomyocyte proliferation [5]: did not

B2: FRP2: Wnt inhibitor, secreted frizzled-related protein class (protein, UniProt Q96HF1 25-295, looked up)
Secreted frizzled-related …: LFLFGQPDFSYKRSNCKPIPANLQLCHGIEYQNMRLPNLLGHETMKEVLEQAGAWIPLVMKQCHPDTKKFLCSLFAPVCLDDLDETIQPCHSLCVQVKDRCAPVMSAFGFPWPDMLECDRFPQDNDLCIPLASSDHLLPATEEAPKVCEACKNKNDDDNDIMETLCKNDFALKIKVKEITYINRDTKIILETKSKTIYKLNGVSERDLKKSVLWLKDSLQCTCEEMNDINAPYLVMGQKQGGELVITSVKRWQKGQREFKRISRSIRKLQC
abolition of Wnt3A induced cardiomyocyte proliferation [5]: did not

B3: Wnt5A: recombinant mouse Wnt5A (Catalog# 645-WN/CF) (protein, UniProt P22725 62-380, looked up)
Protein Wnt-5a: IIGAQPLCSQLAGLSQGQKKLCHLYQDHMQYIGEGAKTGIKECQYQFRHRRWNCSTVDNTSVFGRVMQIGSRETAFTYAVSAAGVVNAMSRACREGELSTCGCSRAARPKDLPRDWLWGGCGDNIDYGYRFAKEFVDARERERIHAKGSYESARILMNLHNNEAGRRTVYNLADVACKCHGVSGSCSLKTCWLQLADFRKVGDALKEKYDSAAAMRLNSRGKLVQVNSRFNSPTTQDLVYIDPSPDYCVRNESTGSLGTQGRLCNKTSEGMDGCELMCCGRGYDQFKTVQTERCHCKFHWCCYVKCKKCTEIVDQFVCK
beta-catenin nuclear localization (percentage of cells with nuclear beta-catenin staining) (beta-catenin; [6]): did not promote beta-catenin nuclear localization | Wnt signaling pathway shown in one or more non-cardiac cell types [2]: signal via the non-canonical signaling pathway
